In patent publication US20230348453A1, “HALOGENATED-HETEROARYL AND OTHER HETEROCYCLIC KINASE INHIBITORS, AND USES THEREOF” (iOmx Therapeutics AG, priority 2020, published 2023):
Read-outs that look alike come from different tables or passages of the source. One block for each compound: values may come before it.

How the values were obtained:
[1] = molecular target: SIK2 (Homo sapiens (Human), UniProt Q9H0K1); assay: SIK2 kinase inhibition (IC50)
[2] = molecular target: T1, SIK3 (Homo sapiens (Human), UniProt Q9Y2K2); assay: SIK3 kinase inhibition (IC50)
[3] = molecular target: SRC (GST-HIS-tag) (Homo sapiens (Human), UniProt P12931); assay type: biochemical
[4] = molecular target: T1, SIK3; conditions: read-out: SIK3 IC50
[5] = mouse, in vivo, po, 30 mg/kg
[6] = test system: MC38 murine tumour cell line; assay: TNF-sensitised cell viability assay (CellTiter-Glo); conditions: read-out: MC38 IC50 (nM at 100 ng/mL TNF); 100 ng/mL TNF, 72 h
[7] = Human hepatocyte stability; assay type: in vitro ADME; conditions: human, hepatocytes; for half-life: read-out: Human hepatocyte stability, Half-life; for microsomal CLint: read-out: Human hepatocyte stability, Intrinsic clearance
[8] = Mouse hepatocyte stability; assay type: in vitro ADME; conditions: hepatocytes; for microsomal CLint: read-out: Mouse hepatocyte stability, Intrinsic clearance
[9] = in vitro; conditions: human, microsomes
[10] = in vitro; conditions: mouse, microsomes
[11] = Human plasma-protein binding; conditions: for recovery at 4 h: human, plasma
[12] = Murine plasma protein binding; conditions: for recovery at 4 h: mouse, plasma
[13] = molecular target: MDR1 (P-gp) (Homo sapiens (Human), UniProt P08183); assay: MDR1-MDCK effective efflux assay; conditions: dog; for Papp: MDCK-MDR1; for efflux ratio: Table 5.1B
[14] = MDCK wild type permeability/efflux; conditions: dog
[15] = Screening PK in mice after 30 mg/kg po; conditions: for Cmax at 2 h / concentration at 6 h: mouse, plasma, po, 30 mg/kg
[16] = test system: HDAC4 phosphorylation in PANC-1 cells; assay: HDAC4 phosphorylation (Meso Scale Discovery assay); conditions: 10 ng/mL rHuTNF, 3 h (Table 9C)
[17] = test system: NFKB activity in PANC-1 cells; assay: TNF-induced NFKB activity (NFKB-dependent luciferase reporter); conditions: 10 ng/ml rHuTNF, PANC-1 reporter cells (Table 9C)
[18] = microsomes
[19] = microsomes; remark: listed apart in the source
[20] = read-out: Kinase: IC50 (nM) SIK2
[21] = MDCK-MDR1, MDCK-MDR1 cells, Mean Efflux Ratio (MDR1)
[22] = MDCK-MDR1, P-gP driven efflux ratio (MDR1/wt)
[23] = Free plasma concentration after 6 h (nM), mice, 30 mg/kg po, 6 h
[24] = Plasma concentration after 6 h (nM), mice, 30 mg/kg po, 6 h

IC50 [1]: 20 to 50 nM
IC50 [2]: 50 to 100 nM
SMILES: Cc1nc(Nc2ncc(C(=O)Nc3c(C(F)(F)F)csc3Cl)s2)cc(N2CCN(CCO)CC2)n1 [Compound E5, N-(2-chloro-4-(trifluoromethyl)thiophen-3-yl)-2-((6-(4-(2-hydroxyethyl)piperazin-1-yl)-2-methylpyrimidin-4-yl)amino)thiazole-5-carboxamide]

SMILES: Cc1nc(Nc2ncc(C(=O)Nc3c(C)ccnc3C)s2)cc(N2CCN(CCO)CC2)n1 [Compound C1, N-(2,4-dimethylpyridin-3-yl)-2-((6-(4-(2-hydroxyethyl)piperazin-1-yl)-2-methylpyrimidin-4-yl)amino)thiazole-5-carboxamide]
IC50 [3]: < 1.5 nM
IC50 [4]: 867 nM

SMILES: Cc1nc(Nc2ncc(C(=O)Nc3c(Br)ccnc3C)s2)cc(N2CCN(CCO)CC2)n1 [Compound C3, N-(4-bromo-2-methylpyridin-3-yl)-2-((6-(4-(2-hydroxyethyl)piperazin-1-yl)-2-methylpyrimidin-4-yl)amino)thiazole-5-carboxamide]
IC50 [4]: 2780 nM

SMILES: Cc1nc(Nc2ncc(C(=O)Nc3c(Cl)csc3C)s2)cc(N2CCN(CCO)CC2)n1 [Compound D1]
Free concentration (nM) at 2 hours [5]: 80 nM
Free concentration (nM) at 6 hours [5]: 4 nM
Free concentration (nM) at 12 hours [5]: 2.14 nM
IC50 [6]: < 200 nM

SMILES: CC(=O)N1CCN(c2cc(Nc3ncc(C(=O)Nc4c(C)csc4Cl)s3)nc(C)n2)CC1 [Compound D8]
IC50 [4]: ~150 nM

half-life [7]: 26 min
microsomal CLint [7]: 55 µL/min/mg
half-life [8]: 56 min
microsomal CLint [8]: 25 µL/min/mg
half-life [9]: 19 min
microsomal CLint [9]: 72 µL/min/mg
half-life [10]: 21 min
microsomal CLint [10]: 66 µL/min/mg
IC50 [1, 20]: < 10 nM
IC50 [2]: 20 to 50 nM
Human plasma-protein binding, Percentage unbound (%) ([11]; Table 5.1A): 3%
recovery at 4 h [11]: 77%
Murine plasma protein binding, Percentage unbound (%) ([12]; Table 5.1A): 1%
recovery at 4 h [12]: 98%
Papp [13]: 3 ×10⁻⁶ cm/s
efflux ratio [13, 21]: 61
efflux ratio [13, 22]: 24
Papp [14]: 8 ×10⁻⁶ cm/s
efflux ratio [14]: 2.6
fold improvement of free serum concentration over C7 ([15]; mice, 30 mg/kg po, 6 h): 2 fold
fold improvement of total serum concentration over C7 ([15]; mice, 30 mg/kg po, 6 h): 3.1 fold
Cmax at 2 h [15]: 487 ng/mL
concentration at 6 h [15, 23]: 7.7 nM
concentration at 6 h [15, 24]: 219 nM
SMILES: Cc1nc(Nc2ncc(C(=O)Nc3c(CF)csc3Cl)s2)cc(N2CCCN(C)CC2)n1 [Compound E11, N-(2-chloro-4-(fluoromethyl)thiophen-3-yl)-2-((2-methyl-6-(4-methyl-1,4-diazepan-1-yl)pyrimidin-4-yl)amino)thiazole-5-carboxamide]

IC50 [1, 20]: < 10 nM
IC50 ([2]; read-out: Kinase: IC50 (nM) SIK3): < 20 nM
SMILES: Cc1nc(Nc2ncc(C(=O)Nc3c(C(F)F)csc3Cl)s2)cc(N2CCN(C)CC2)n1 [Compound E13, N-(2-chloro-4-(difluoromethyl)thiophen-3-yl)-2-((2-methyl-6-(4-methylpiperazin-1-yl)pyrimidin-4-yl)amino)thiazole-5-carboxamide]

half-life [7]: 34 min
microsomal CLint [7]: 41 µL/min/mg
half-life [8]: 63 min
microsomal CLint [8]: 22 µL/min/mg
half-life [9]: 16 min
microsomal CLint [9]: 86 µL/min/mg
half-life [10]: 18 min
microsomal CLint [10]: 76 µL/min/mg
IC50 [1, 20]: < 10 nM
IC50 [2]: 20 to 50 nM
Human plasma-protein binding, Percentage unbound (%) ([11]; Table 5.1A): 2%
recovery at 4 h [11]: 76%
Murine plasma protein binding, Percentage unbound (%) ([12]; Table 5.1A): 4%
recovery at 4 h [12]: 89%
Papp [13]: 2 ×10⁻⁶ cm/s
efflux ratio [13, 21]: 53
efflux ratio [13, 22]: 12
Papp [14]: 7 ×10⁻⁶ cm/s
efflux ratio [14]: 4.3
Cmax at 2 h [15]: 889 ng/mL
concentration at 6 h [15, 23]: 3.7 nM
concentration at 6 h [15, 24]: 73 nM
SMILES: Cc1nc(Nc2ncc(C(=O)Nc3c(CF)csc3Cl)s2)cc(N2CCN(CCO)CC2)n1 [Compound E3, N-(2-chloro-4-(fluoromethyl)thiophen-3-yl)-2-((6-(4-(2-hydroxyethyl)piperazin-1-yl)-2-methylpyrimidin-4-yl)amino)thiazole-5-carboxamide]

IC50 [1, 20]: < 10 nM
IC50 [2]: 50 to 100 nM
SMILES: Cc1nc(Nc2ncc(C(=O)Nc3c(Cl)csc3F)s2)cc(N2CCN(CCO)CC2)n1 [Compound E2, N-(4-chloro-2-fluorothiophen-3-yl)-2-((6-(4-(2-hydroxyethyl)piperazin-1-yl)-2-methylpyrimidin-4-yl)amino)thiazole-5-carboxamide]

SMILES: Cc1nc(Nc2ncc(C(=O)Nc3cccnc3C)s2)cc(N2CCN(CCO)CC2)n1 [Compound C6, 2-((6-(4-(2-hydroxyethyl)piperazin-1-yl)-2-methylpyrimidin-4-yl)amino)-N-(2-methylpyridin-3-yl)thiazole-5-carboxamide]
IC50 [3]: < 1.5 nM
IC50 [4]: 987 nM

SMILES: Cc1nc(Nc2ncc(C(=O)Nc3c(C)cncc3C)s2)cc(N2CCN(CCO)CC2)n1 [Compound C5, N-(3,5-dimethylpyridin-4-yl)-2-((6-(4-(2-hydroxyethyl)piperazin-1-yl)-2-methylpyrimidin-4-yl)amino)thiazole-5-carboxamide]
IC50 [3]: < 1.5 nM
IC50 [4]: 340 nM

IC50 [1, 20]: < 20 nM
IC50 [2]: 50 to 100 nM
SMILES: Cc1nc(Nc2ncc(C(=O)Nc3c(CF)csc3Cl)s2)cc(N2CCNC(=O)C2)n1 [Compound E12, N-(2-chloro-4-(fluoromethyl)thiophen-3-yl)-2-((2-methyl-6-(3-oxopiperazin-1-yl)pyrimidin-4-yl)amino)thiazole-5-carboxamide]

SMILES: Cc1nc(Nc2ncc(C(=O)Nc3c(Cl)csc3Cl)s2)cc(N2CCN(CCO)CC2)n1 [Compound D7]
Free concentration (nM) at 2 hours [5]: 43 nM
Free concentration (nM) at 6 hours [5]: 5 nM
Free concentration (nM) at 12 hours [5]: 1.10 nM

SMILES: Cc1nc(Nc2ncc(C(=O)Nc3c(C)csc3Cl)s2)cc(N2CCN(C)CC2)n1 [Compound D9]
IC50 [4]: ~60 nM
Free concentration (nM) at 2 hours [5]: 44 nM
Free concentration (nM) at 6 hours [5]: 8 nM
Free concentration (nM) at 12 hours [5]: 2.71 nM
Inhibition of HDAC4 phosphorylation [16]: +
Inhibition of NFKB activity [17]: +

SMILES: Cc1nc(NCCO)cc(Nc2ncc(C(=O)Nc3c(Cl)ccnc3C)s2)n1 [Compound C11, N-(4-chloro-2-methylpyridin-3-yl)-2-((6-((2-hydroxyethyl)amino)-2-methylpyrimidin-4-yl)amino)thiazole-5-carboxamide]
IC50 [3]: < 1.5 nM
IC50 [4]: 1510 nM

IC50 [1, 20]: < 20 nM
IC50 [2]: 20 to 50 nM
SMILES: Cc1nc(Nc2ncc(C(=O)Nc3c(Cl)csc3F)s2)cc(N2CCN(C)CC2)n1 [Compound E15, N-(4-chloro-2-fluorothiophen-3-yl)-2-((2-methyl-6-(4-methylpiperazin-1-yl)pyrimidin-4-yl)amino)thiazole-5-carboxamide]

SMILES: Cc1nc(Nc2ncc(C(=O)Nc3c(CF)csc3Cl)s2)cc(N2CCN(C)C(C)C2)n1 (single isomer, unassigned) [Compound E10-Ent-II, N-(2-chloro-4-(fluoromethyl)thiophen-3-yl)-2-((6-(3,4-dimethylpiperazin-1-yl)-2-methylpyrimidin-4-yl)amino)thiazole-5-carboxamide]
IC50 against SIK3 relative to IC50 of E10-Ent-I ([2]; separated enantiomers): approximately half

SMILES: Cc1nc(Nc2ncc(C(=O)Nc3c(C)cncc3Cl)s2)cc(N2CCN(CCO)CC2)n1 [Compound C4, N-(3-chloro-5-methylpyridin-4-yl)-2-((6-(4-(2-hydroxyethyl)piperazin-1-yl)-2-methylpyrimidin-4-yl)amino)thiazole-5-carboxamide]
IC50 [3]: < 1.5 nM
IC50 [4]: 677 nM
Human liver microsomal stability, Intrinsic clearance [18]: 115 µL/min/mg
Mouse liver microsomal stability, Intrinsic clearance (L/min/mg) [19]: 38 µL/min/mg
half-life [9]: 12 min
half-life [10]: 37 min
Human plasma-protein binding, Percentage unbound (%) ([11]; Table 5A): 2%
Murine plasma protein binding, Percentage unbound (%) ([12]; Table 5A): 14%
